How the values were obtained:
Type in all cases: cell-based, human
[1] = test system: ACHN; assay: NCI60 antitumor screening; conditions: 10 μM one-dose
[2] = test system: NCI-H226; assay: NCI60 antitumor screening; conditions: 10 μM one-dose
[3] = test system: KM12; assay: NCI60 antitumor screening; conditions: 10 μM one-dose
[4] = test system: NCI-H460; assay: NCI60 antitumor screening; conditions: 10 μM one-dose
[5] = test system: MCF7; assay: NCI60 antitumor screening; conditions: 10 μM one-dose
[6] = test system: T-47D; assay: NCI60 antitumor screening; conditions: 10 μM one-dose
[7] = test system: HS 578T; assay: NCI60 antitumor screening; conditions: 10 μM one-dose
[8] = test system: HT29; assay: NCI60 antitumor screening; conditions: 10 μM one-dose
[9] = test system: SF-268; assay: NCI60 antitumor screening; conditions: 10 μM one-dose
[10] = test system: SR; assay: NCI60 antitumor screening; conditions: 10 μM one-dose
[11] = test system: HOP-62; assay: NCI60 antitumor screening; conditions: 10 μM one-dose
[12] = test system: OVCAR-8; assay: NCI60 antitumor screening; conditions: 10 μM one-dose
[13] = test system: HL-60(TB); assay: NCI60 antitumor screening; conditions: 10 μM one-dose
[14] = test system: HCT-116; assay: NCI60 antitumor screening; conditions: 10 μM one-dose
[15] = test system: UACC-62; assay: NCI60 antitumor screening; conditions: 10 μM one-dose
[16] = test system: SK-OV-3; assay: NCI60 antitumor screening; conditions: 10 μM one-dose
[17] = test system: NCI-H23; assay: NCI60 antitumor screening; conditions: 10 μM one-dose
[18] = test system: SW-620; assay: NCI60 antitumor screening; conditions: 10 μM one-dose
[19] = test system: MALME-3M; assay: NCI60 antitumor screening; conditions: 10 μM one-dose
[20] = test system: HCT-15; assay: NCI60 antitumor screening; conditions: 10 μM one-dose
[21] = test system: HCC-2998; assay: NCI60 antitumor screening; conditions: 10 μM one-dose
[22] = test system: SNB-19; assay: NCI60 antitumor screening; conditions: 10 μM one-dose
[23] = test system: 786–0; assay: NCI60 antitumor screening; conditions: 10 μM one-dose
[24] = test system: MOLT-4; assay: NCI60 antitumor screening; conditions: 10 μM one-dose
[25] = test system: EKVX; assay: NCI60 antitumor screening; conditions: 10 μM one-dose
[26] = test system: MDA-MB-435; assay: NCI60 antitumor screening; conditions: 10 μM one-dose
[27] = test system: BT-549; assay: NCI60 antitumor screening; conditions: 10 μM one-dose
[28] = test system: UACC-257; assay: NCI60 antitumor screening; conditions: 10 μM one-dose
[29] = test system: OVCAR-3; assay: NCI60 antitumor screening; conditions: 10 μM one-dose
[30] = test system: NCI/ADR-RES; assay: NCI60 antitumor screening; conditions: 10 μM one-dose
[31] = test system: SN12C; assay: NCI60 antitumor screening; conditions: 10 μM one-dose
[32] = test system: DU-145; assay: NCI60 antitumor screening; conditions: 10 μM one-dose
[33] = test system: SK-MEL-2; assay: NCI60 antitumor screening; conditions: 10 μM one-dose
[34] = test system: A498; assay: NCI60 antitumor screening; conditions: 10 μM one-dose
[35] = test system: MDA-MB-468; assay: NCI60 antitumor screening; conditions: 10 μM one-dose
[36] = test system: OVCAR-5; assay: NCI60 antitumor screening; conditions: 10 μM one-dose
[37] = test system: SNB-75; assay: NCI60 antitumor screening; conditions: 10 μM one-dose
[38] = test system: IGROV1; assay: NCI60 antitumor screening; conditions: 10 μM one-dose
[39] = test system: M14; assay: NCI60 antitumor screening; conditions: 10 μM one-dose
[40] = test system: LOX IMVI; assay: NCI60 antitumor screening; conditions: 10 μM one-dose
[41] = test system: COLO 205; assay: NCI60 antitumor screening; conditions: 10 μM one-dose
[42] = test system: SF-295; assay: NCI60 antitumor screening; conditions: 10 μM one-dose
[43] = test system: NCI60 cell lines panel; assay: NCI60 antitumor screening, full panel; conditions: 10 μM one-dose, mean over NCI60
Protocol: The National Cancer Institute (NCI), Bethesda, Maryland, United States, selected all of the novel synthesized compounds (2b–d, 3a–d and 4a–p) for in vitro antitumor screening at a single concentration of 10 μM toward the NCI60 cell lines panel covering leukaemia, non-small cell lungs, colon, central nervous system (CNS), melanoma, ovarian, renal, prostate, and breast cancer cells.[32–35] The data were reported as a mean graph of the percent growth of the treated cell lines and expressed as percentage growth inhibition (GI%) in Table 1 and ESI 1.
(2) The molar concentration of the compound responsible for total growth inhibition, also known as total growth inhibition (TGI).
Regarding subpanel selectivity toward certain cancer type, the method of determining a compound's selectivity index is to divide the full panel MG-MID (μM) value by each single subpanel. Values above six indicate high selectivity against the subpanel; moderate selectivity is denoted by values between three and six. Conversely, compounds are termed nonselective if their selectivity is less than three.[30,37]

[44] = test system: OVCAR-4; assay: NCI60 antitumor screening; conditions: 10 μM one-dose
[45] = test system: RXF 393; assay: NCI60 antitumor screening; conditions: 10 μM one-dose
[46] = test system: SF-539; assay: NCI60 antitumor screening; conditions: 10 μM one-dose
[47] = test system: TK-10; assay: NCI60 antitumor screening; conditions: 10 μM one-dose
[48] = test system: HOP-92; assay: NCI60 antitumor screening; conditions: 10 μM one-dose
[49] = test system: SK-MEL-28; assay: NCI60 antitumor screening; conditions: 10 μM one-dose
[50] = test system: NCI-H522; assay: NCI60 antitumor screening; conditions: 10 μM one-dose
[51] = test system: U251; assay: NCI60 antitumor screening; conditions: 10 μM one-dose
[52] = test system: CAKI-1; assay: NCI60 antitumor screening; conditions: 10 μM one-dose
[53] = test system: A549/ATCC; assay: NCI60 antitumor screening; conditions: 10 μM one-dose
[54] = test system: MDA-MB-231/ATCC; assay: NCI60 antitumor screening; conditions: 10 μM one-dose
[55] = test system: SK-MEL-5; assay: NCI60 antitumor screening; conditions: 10 μM one-dose
[56] = test system: UO-31; assay: NCI60 antitumor screening; conditions: 10 μM one-dose
[57] = test system: CCRF-CEM; assay: NCI60 antitumor screening; conditions: 10 μM one-dose
[58] = test system: PC-3; assay: NCI60 antitumor screening; conditions: 10 μM one-dose
[59] = test system: NCI-H322M; assay: NCI60 antitumor screening; conditions: 10 μM one-dose
[60] = test system: RPMI-8226; assay: NCI60 antitumor screening; conditions: 10 μM one-dose
[61] = test system: K-562; assay: NCI60 antitumor screening; conditions: 10 μM one-dose

`N#Cc1c(-c2ccc(F)cc2)nc(SCc2ccccc2)nc1N1CCOCC1` [4a, 2-(Benzylthio)-4-(4-fluorophenyl)-6-morpholinopyrimidine-5-carbonitrile] was tested, and the GI% [1] was “— (GI% < 10)”, the GI% [2] was “— (GI% < 10)” and the GI% [3] was “— (GI% < 10)”. The GI% [4] was “— (GI% < 10)”, the GI% [5] was “— (GI% < 10)” and the GI% [6] was 15.89%. For the same compound, the GI% [7] was 19.87%, the GI% [8] was “— (GI% < 10)” and the GI% [9] was “— (GI% < 10)”. For the same compound, the GI% [10] was “— (GI% < 10)”, the GI% [11] was “— (GI% < 10)” and the GI% [12] was 21.20%. The GI% [13] was 31.31%, the GI% [14] was 10.37% and the GI% [15] was 13.24%. The GI% [16] was “— (GI% < 10)”, the GI% [17] was “— (GI% < 10)” and the GI% [18] was “— (GI% < 10)”. The GI% [19] was “— (GI% < 10)”, the GI% [20] was “— (GI% < 10)” and the GI% [21] was “— (GI% < 10)”. For the same compound, the GI% [22] was “— (GI% < 10)”, the GI% [23] was “— (GI% < 10)” and the GI% [24] was “— (GI% < 10)”. The GI% [25] was “— (GI% < 10)”, the GI% [26] was “— (GI% < 10)” and the GI% [27] was 19.15%. For the same compound, the GI% [28] was “— (GI% < 10)”, the GI% [29] was “— (GI% < 10)” and the GI% [30] was 10.32%. The GI% [31] was “— (GI% < 10)”, the GI% [32] was “— (GI% < 10)” and the GI% [33] was “— (GI% < 10)”. The GI% [34] was “— (GI% < 10)”, the GI% [35] was “— (GI% < 10)” and the GI% [36] was “— (GI% < 10)”. The GI% [37] was “— (GI% < 10)”, the GI% [38] was “— (GI% < 10)” and the GI% [39] was “— (GI% < 10)”. The GI% [40] was “— (GI% < 10)”, the GI% [41] was “— (GI% < 10)” and the GI% [42] was “— (GI% < 10)”. For the same compound, the “Mean GI%” value [43] was “— (GI% < 10)”, the GI% [44] was “— (GI% < 10)” and the GI% [45] was “— (GI% < 10)”. For the same compound, the GI% [46] was 16.91%, the GI% [47] was “— (GI% < 10)” and the GI% [48] was 15.08%. The GI% [49] was “— (GI% < 10)”, the GI% [50] was 16.81% and the GI% [51] was “— (GI% < 10)”. For the same compound, the GI% [52] was “— (GI% < 10)”, the GI% [53] was “— (GI% < 10)” and the GI% [54] was 10.65%. The GI% [55] was “— (GI% < 10)”, the GI% [56] was “— (GI% < 10)” and the GI% [57] was “— (GI% < 10)”. For the same compound, the GI% [58] was “— (GI% < 10)”, the GI% [59] was “— (GI% < 10)” and the GI% [60] was “— (GI% < 10)”. For the same compound, the GI% [61] was 16.46%.
`N#Cc1c(Cl)nc(SCc2ccccc2)nc1-c1ccc(F)cc1` [3a, 2-(Benzylthio)-4-chloro-6-(4-fluorophenyl) pyrimidine-5-carbonitrile] was tested, and the GI% [1] was 45.51%, the GI% [2] was 18.61% and the GI% [3] was “— (GI% < 10)”. The GI% [4] was “— (GI% < 10)”, the GI% [5] was “— (GI% < 10)” and the GI% [6] was 10.38%. The GI% [7] was 16.76%, the GI% [8] was “— (GI% < 10)” and the GI% [9] was 21.56%. The GI% [10] was “— (GI% < 10)”, the GI% [11] was 12.77% and the GI% [12] was 27.14%. The GI% [13] was 44.03%, the GI% [14] was 22.79% and the GI% [15] was “— (GI% < 10)”. For the same compound, the GI% [16] was “— (GI% < 10)”, the GI% [17] was “— (GI% < 10)” and the GI% [18] was “— (GI% < 10)”. The GI% [19] was “— (GI% < 10)”, the GI% [20] was “— (GI% < 10)” and the GI% [21] was “— (GI% < 10)”. For the same compound, the GI% [22] was 16.70%, the GI% [23] was 38.26% and the GI% [24] was “— (GI% < 10)”. For the same compound, the GI% [25] was “— (GI% < 10)”, the GI% [26] was “— (GI% < 10)” and the GI% [27] was 11.73%. For the same compound, the GI% [28] was “— (GI% < 10)”, the GI% [29] was “— (GI% < 10)” and the GI% [30] was 20.64%. For the same compound, the GI% [31] was “— (GI% < 10)”, the GI% [32] was “— (GI% < 10)” and the GI% [33] was “— (GI% < 10)”. The GI% [34] was “— (GI% < 10)”, the GI% [35] was “— (GI% < 10)” and the GI% [36] was “— (GI% < 10)”. The GI% [37] was “— (GI% < 10)”, the GI% [38] was “— (GI% < 10)” and the GI% [39] was “— (GI% < 10)”. For the same compound, the GI% [40] was “— (GI% < 10)”, the GI% [41] was “— (GI% < 10)” and the GI% [42] was 27.87%. The “Mean GI%” value [43] was “— (GI% < 10)”, the GI% [44] was 49.74% and the GI% [45] was 19.19%. The GI% [46] was 24.06%, the GI% [47] was “— (GI% < 10)” and the GI% [48] was 14.74%. For the same compound, the GI% [49] was “— (GI% < 10)”, the GI% [50] was 16.01% and the GI% [51] was 39.15%. The GI% [52] was 21.66%, the GI% [53] was 16.44% and the GI% [54] was 21.72%. For the same compound, the GI% [55] was “— (GI% < 10)”, the GI% [56] was 14.25% and the GI% [57] was “— (GI% < 10)”. For the same compound, the GI% [58] was “— (GI% < 10)”, the GI% [59] was “— (GI% < 10)” and the GI% [60] was “— (GI% < 10)”. For the same compound, the GI% [61] was 11.78%.

— PMC10620772, “Design, synthesis, and biological evaluation of new pyrimidine-5-carbonitrile derivatives as novel anti-cancer, dual EGFR^WT/COX-2 inhibitors with docking studies” (RSC Advances, 2023)
